Laboratory results from ChEMBL document CHEMBL5107997, “Discovery and biological evaluation of 1-{2,7-diazaspiro[3.5]nonan-2-yl}prop-2-en-1-one derivatives as covalent inhibitors of KRAS G12C with favorable metabolic stability and anti-tumor activity” (Bioorg Med Chem, 2022).
pIC50: −log10 of the molar value.

Experiments:
[1] = biological target: GTPase KRas (Homo sapiens, UniProt P01116, G12C); assay: Inhibition of biotinylated Avi-tagged GDP-bound KRAS G12C mutant (1 to 185 residues) (unknown origin) assessed as inhibition of KRAS G12C mutant/SOS/GST-tagged c-Raf complex formation incubated for 1 hr and measured by fluorescence based assay
[2] = Downregulation of pERK levels in human NCI-H1373 cells measured after 2 hrs by EISA; format: functional, cell-based; conditions: NCI-H1373, 2 h
[3] = Downregulation of pERK levels in human A-375 cells measured after 2 hrs by EISA; format: functional, cell-based; conditions: A-375, 2 h
[4] = tested on: NCI-H1373; assay: Growth inhibition of human NCI-H1373 cells assessed as cell viability after 6 days by CellTiter-Glo assay; format: functional, cell-based; conditions: NCI-H1373, 144 h
[5] = tested on: A-375; assay: Growth inhibition of human A-375 cells assessed as cell viability after 6 days by CellTiter-Glo assay; format: functional, cell-based; conditions: A-375, 144 h
[6] = tested on: GTPase KRas (Homo sapiens), P01116 [G12C]; assay: Inhibition of biotinylated Avi-tagged GDP-bound KRAS G12C mutant (1 to 185 residues) (unknown origin) assessed as inhibition of KRAS G12C mutant/SOS/GST-tagged c-Raf complex formation at 3 uM incubated for 1 hr and measured by fluorescence based assay relative to control
[7] = Aqueous solubility of the compound in pH 6.8 JP2 fluid measured after 20 hrs by disintegration test; format: physicochemical
[8] = Intrinsic clearance in human liver microsomes at 0.1 to 0.2 umol/L measured after 30 mins in presence of NADPH by LC-MS/MS analysis; format: ADME, Microsome; conditions: dose 0.1-0.2 µmol/L, read-out: CLH
[9] = Intrinsic clearance in mouse liver microsomes at 0.1 to 0.2 umol/L measured after 30 mins in presence of NADPH by LC-MS/MS analysis; format: ADME, Microsome; conditions: dose 0.1-0.2 µmol/L, read-out: CLH
[10] = Plasma concentration in nude mouse xenografted with human NCI-H1373 cells at 100 mg/kg, po administered as single dose and measured at 1 hr by LC/MS-MS analysis; format: ADME, organism-based
[11] = Plasma concentration in nude mouse xenografted with human NCI-H1373 cells at 100 mg/kg, po administered as single dose and measured at 6 hr by LC/MS-MS analysis; format: ADME, organism-based
[12] = Drug uptake in tumor of nude mouse xenografted with human NCI-H1373 cells at 100 mg/kg, po administered as single dose and measured at 6 hr by LC/MS-MS analysis; format: ADME, organism-based, Neoplasm; conditions: read-out: Drug uptake
[13] = Plasma concentration in nude mouse xenografted with human NCI-H1373 cells at 30 mg/kg, sc administered as single dose and measured at 1 hr by LC/MS-MS analysis; format: ADME, organism-based
[14] = Plasma concentration in nude mouse xenografted with human NCI-H1373 cells at 30 mg/kg, sc administered as single dose and measured at 6 hr by LC/MS-MS analysis; format: ADME, organism-based
[15] = Drug uptake in tumor of nude mouse xenografted with human NCI-H1373 cells at 30 mg/kg, sc administered as single dose and measured at 6 hr by LC/MS-MS analysis; format: ADME, organism-based, Neoplasm; conditions: read-out: Drug uptake
[16] = tested on: NCI-H1373; assay: Antitumor activity against human NCI-H1373 cells xenografted in nude mouse assessed as inhibition of p-ERK levels at 33 mg/kg, sc administered as single dose and measured after 6 hrs; format: functional
[17] = tested on: NCI-H1373; assay: Antitumor activity against human NCI-H1373 cells xenografted in nude mouse assessed as tumor growth inhibition at 3 mg/kg, sc administered as single dose; format: functional; conditions: read-out: TGI
[18] = tested on: NCI-H1373; assay: Antitumor activity against human NCI-H1373 cells xenografted in nude mouse assessed as tumor growth inhibition at 10 mg/kg, sc administered as single dose; format: functional; conditions: read-out: TGI
[19] = tested on: NCI-H1373; assay: Antitumor activity against human NCI-H1373 cells xenografted in nude mouse assessed as tumor growth inhibition at 30 mg/kg, sc administered as single dose; format: functional; conditions: read-out: TGI
[20] = Toxicity in nude mouse xenografted with human NCI-H1373 cells assessed as effect on body weight at 3 to 30 mg/kg, sc; format: organism-based; conditions: in vivo, dose 3-30 mg/kg

C=CC(=O)N1CC2(CCN(c3nc(OCC4CCN(C)CC4)nc4c(F)c(-c5c(C)ccc6[nH]ncc56)c(Cl)cc34)CC2)C1
pIC50 [1]: 6.89

C=CC(=O)N1CC2(CCN(c3nc(OCCN(C)C)nc4c(F)c(-c5c(C)ccc6[nH]ncc56)c(Cl)cc34)CC2)C1
pIC50 [1]: 6.47

CCN1CCC(Oc2nc(N3CCC4(CC3)CN(C(=O)/C=C/CN3CCOCC3)C4)c3cc(Cl)c(-c4c(C)ccc5[nH]ncc45)c(F)c3n2)CC1
pIC50 [1]: < 5.00

C=CC(=O)N1CCC2(C1)CN(c1nc(NC3CCN(C)CC3)nc3c(F)c(-c4c(C)ccc5[nH]ncc45)c(Cl)cc13)C2
pIC50 [1]: 4.74

C=CC(=O)N1CC2(CCN(c3nc(N(C)C4CCN(CC)CC4)nc4c(F)c(-c5c(C)ccc6[nH]ncc56)c(Cl)cc34)CC2)C1
pIC50 [1]: 5.49

C=CC(=O)N1CC2(CCN(c3nc(NC4CCN(C)CC4)nc4c(F)c(-c5c(C)ccc6[nH]ncc56)c(Cl)cc34)C2)C1
pIC50 [1]: 6.80
pIC50 [2]: 6.26
pIC50 [3]: < 5.00
pIC50 [4]: 6.02
pIC50 [5]: 5.40

C=CC(=O)N1CCC2(CC1)CN(c1nc(NC3CCN(C)CC3)nc3c(F)c(-c4c(C)ccc5[nH]ncc45)c(Cl)cc13)C2
pIC50 [1]: < 4.52

C=CC(=O)N1CC2(C1)CN(c1nc(NC3CCN(C)CC3)nc3c(F)c(-c4c(C)ccc5[nH]ncc45)c(Cl)cc13)C2
pIC50 [1]: 5.52
inhibition [6]: 60%

C=CC(=O)N1CC2(CCN(c3nc(SC4CCN(CC)CC4)nc4c(F)c(-c5c(C)ccc6[nH]ncc56)c(Cl)cc34)CC2)C1
pIC50 [1]: 6.03

C=CC(=O)N1CC2(CCN(c3nc(OCCCN4CCOCC4)nc4c(F)c(-c5c(C)ccc6[nH]ncc56)c(Cl)cc34)CC2)C1
pIC50 [1]: 6.19

C=CC(=O)N1CC2(CCN(c3nc(OC4CCN(C)CC4)nc4c(F)c(-c5c(C)ccc6[nH]ncc56)c(Cl)cc34)CC2)C1
pIC50 [1]: 7.15
pIC50 [2]: 7.02
pIC50 [4]: 7.00
pIC50 [5]: 5.54
solubility at 20 h [7]: > 100 µM
CLint scaled [8]: 35 mL/min/kg
CLint scaled [9]: 115 mL/min/kg

C=CC(=O)N1CC2(CCN(c3nc(OC4CCN(CC)CC4)nc4c(F)c(-c5c(C)ccc6[nH]ncc56)c(Cl)cc34)CC2)C1
pIC50 [1]: 7.11
pIC50 [2]: 6.85
pIC50 [4]: 6.92
pIC50 [5]: 5.46
solubility at 20 h [7]: > 100 µM
CLint scaled [8]: 37 mL/min/kg
CLint scaled [9]: 115 mL/min/kg
concentration at 1 h [10]: 670 nM
concentration at 6 h [11]: 130 nM
concentration at 6 h [12]: 70 nM
concentration at 1 h [13]: 3800 nM
concentration at 6 h [14]: 720 nM
concentration at 6 h [15]: 740 nM
inhibition in vivo at 33 mg/kg [16]: 63%
inhibition in vivo at 3 mg/kg [17]: 33%
inhibition in vivo at 10 mg/kg [18]: 50%
inhibition in vivo at 30 mg/kg [19]: 92%
Activity [20]: Non-Toxic

C=CC(=O)N1CCN(c2nc(NC3CCN(C)CC3)nc3c(F)c(-c4c(C)ccc5[nH]ncc45)c(Cl)cc23)CC1
pIC50 [1]: 6.33
pIC50 [2]: 6.37
pIC50 [3]: < 5.00
pIC50 [4]: 6.19
pIC50 [5]: 5.96

C=CC(=O)N1CC2(CCN(c3nc(NC4CCN(C)CC4)nc4c(F)c(-c5c(C)ccc6[nH]ncc56)c(Cl)cc34)CC2)C1
pIC50 [1]: 6.46
pIC50 [2]: 6.42
pIC50 [3]: < 5.00
pIC50 [4]: 6.41
pIC50 [5]: 5.55

C=CC(=O)N1CC2(CCN(c3nc(OCCCN(C)C)nc4c(F)c(-c5c(C)ccc6[nH]ncc56)c(Cl)cc34)CC2)C1
pIC50 [1]: 6.59

C=CC(=O)N1CC2(CCN(c3nc(OCCCN4CCCCC4)nc4c(F)c(-c5c(C)ccc6[nH]ncc56)c(Cl)cc34)CC2)C1
pIC50 [1]: 6.43

C=CC(=O)N1CC2(CCN(c3nc(OC4(CN(C)C)CCC4)nc4c(F)c(-c5c(C)ccc6[nH]ncc56)c(Cl)cc34)CC2)C1
pIC50 [1]: 6.11

C=CC(=O)N1CC2(CCN(c3nc(OC4CCOCC4)nc4c(F)c(-c5c(C)ccc6[nH]ncc56)c(Cl)cc34)CC2)C1
pIC50 [1]: 5.68
